This is an account of results in ChEMBL document CHEMBL2417475, “Synthesis and SAR studies of marine natural products ma'edamines A, B and their analogues” (Bioorg Med Chem Lett, 2013).

Assay type in all cases: functional, cell-based
One assay concerns CAMA-1. Put plainly: Antiproliferative activity against human progesterone receptor and HER2 deficient CAMA1 cells expressing estrogen receptor after 72 hrs by MTT assay. The conditions noted are these: CAMA-1, 72 h.
The next assay deals with SK-BR-3. Put plainly: Antiproliferative activity against human estrogen receptor and progesterone receptor deficient SKBR3 cells expressing HER2 after 72 hrs by MTT assay. The settings on record: SK-BR-3, 72 h. A general note: Tetrazolium assays rely on reduction of a dye to a coloured formazan, in cell work by metabolically active cells.
In a further assay the test system is T47D. Put plainly: Antiproliferative activity against human HER2 deficient T47D cells expressing estrogen receptor and progesterone receptor after 72 hrs by MTT assay.

SMILES strings stand for the structures.

For `COc1ccc(Cc2nc(-c3cc(Br)c(O)c(Br)c3)cnc2Cl)cc1Br`, the IC50 in the assay with CAMA-1, with SK-BR-3 and in the assay with T47D was over 10 µM throughout.

Regarding `CN(C)CCCOc1c(Br)cc(-c2c[nH]c(=O)c(Cc3ccccc3)n2)cc1Br`, the half-inhibitory concentration (IC50) (in general, the concentration that inhibits the measured activity by half) in the assay on CAMA-1 came out at 7.1 µM; in the assay with SK-BR-3 it was 5.5 µM; with T47D it was 6.33 µM.

As for `CNCCCOc1c(Br)cc(-c2c[nH]c(=O)c(Cc3ccccc3)n2)cc1Br`, the IC50 with CAMA-1, in the assay with SK-BR-3 and in the assay with T47D was over 10 µM in each case.

On to `COc1ccc(Cc2nc(-c3cc(Br)c(OCCN(C)C)c(Br)c3)c[nH]c2=O)cc1Br`, for which the results for the IC50 in the assay on CAMA-1, in the assay on SK-BR-3 and with T47D were over 10 µM, 5.73 µM and 5.67 µM, respectively.

Take `CNCCOc1c(Br)cc(-c2c[nH]c(=O)c(Cc3ccc(OC)c(Br)c3)n2)cc1Br`: the values for the IC50 in the assay with CAMA-1, in the assay on SK-BR-3 and with T47D were over 10 µM, 8.1 µM and 6.18 µM, respectively.

Turning to `COc1ccc(Cc2nc(-c3cc(Cl)c(OCCCN(C)C)c(Cl)c3)c[nH]c2=O)cc1Cl`, the IC50 in the assay with CAMA-1, in the assay on SK-BR-3 and with T47D was over 10 µM in each case.

As for `CN(C)CCCOc1c(Br)cc(-c2c[nH]c(=O)c(Cc3c[nH]c4ccccc34)n2)cc1Br`, the values for the IC50 in the assay on CAMA-1, in the assay with SK-BR-3 and in the assay with T47D were over 10 µM, 7 µM and 6.33 µM, respectively.

With `CNCCCOc1c(Br)cc(-c2c[nH]c(=O)c(Cc3c[nH]c4ccccc34)n2)cc1Br`, the IC50 in the assay with CAMA-1 is 5.77 µM; in the assay with SK-BR-3, 4.33 µM; with T47D, 4 µM.

For `CC(C)c1nc(-c2cc(Br)c(OCCCN(C)C)c(Br)c2)c[nH]c1=O`, the IC50 with CAMA-1, with SK-BR-3 and in the assay with T47D was over 10 µM throughout.

In the case of `COc1ccc(Cc2nc(-c3cc(Br)c(OCCCN4CCOCC4)c(Br)c3)c[nH]c2=O)cc1Br`, the IC50 in the assay on CAMA-1, in the assay with SK-BR-3 and in the assay with T47D was over 10 µM in each case.

In the case of `CCN(CC)CCCOc1c(Br)cc(-c2c[nH]c(=O)c(Cc3ccc(OC)c(Br)c3)n2)cc1Br`, the values for the IC50 in the assay on CAMA-1, with SK-BR-3 and in the assay on T47D were 5.23 µM, 6 µM and over 10 µM, respectively.

As to `COc1ccc(Cc2nc(-c3ccc(OCCCN4CCOCC4)cc3)c[nH]c2=O)cc1`, the IC50 in the assay on CAMA-1, in the assay with SK-BR-3 and with T47D was over 10 µM throughout.

In the case of `COc1ccc(Cc2nc(-c3ccc(OCCCN(C)C)cc3)c[nH]c2=O)cc1`, the IC50 in the assay with CAMA-1, with SK-BR-3 and in the assay with T47D was over 10 µM in each case.

As for `CN(C)CCCOc1c(Br)cc(-c2c[nH]c(=O)c(Cc3ccc(O)c(Br)c3)n2)cc1Br`, the IC50 in the assay on CAMA-1 stood at 6.67 µM; with SK-BR-3, 5.67 µM; in the assay on T47D, 4.77 µM.

In the case of `COc1ccc(Cc2nc(-c3cc(Br)c(OCCCCN4CCOCC4)c(Br)c3)c[nH]c2=O)cc1Br`, the IC50 in the assay on CAMA-1, in the assay with SK-BR-3 and in the assay with T47D was over 10 µM throughout.

With `COc1ccc(Cc2nc(-c3cc(Br)c(OCCCCN(C)C)c(Br)c3)c[nH]c2=O)cc1Br`, the IC50 in the assay on CAMA-1, with SK-BR-3 and in the assay on T47D was over 10 µM in each case.

Take `COc1ccc(Cc2nc(-c3ccc(OCCCCN(C)C)cc3)c[nH]c2=O)cc1`: the IC50 with CAMA-1, in the assay with SK-BR-3 and in the assay with T47D was over 10 µM in each case.

With `CN(C)CCCOc1ccc(-c2c[nH]c(=O)c(Cc3c[nH]c4ccccc34)n2)cc1`, the IC50 in the assay on CAMA-1 and in the assay on SK-BR-3 was over 20 µM each time.

Turning to `CNCCCOc1ccc(-c2c[nH]c(=O)c(Cc3c[nH]c4ccccc34)n2)cc1`, the IC50 in the assay on CAMA-1 and with SK-BR-3 was over 20 µM each time.

`O=c1[nH]cc(-c2ccccc2)nc1Cc1ccccc1`: the IC50 in the assay with CAMA-1, in the assay with SK-BR-3 and in the assay on T47D was over 10 µM throughout.

Consider `CS(=O)(=O)CCNCc1ccc(-c2ccc3ncnc(Nc4ccc(OCc5cccc(F)c5)c(Cl)c4)c3c2)o1` [LAPATINIB], for which the IC50 was over 10 µM in the assay with CAMA-1, 5.05 µM in the assay with SK-BR-3 and over 10 µM with T47D.

As to `COc1ccc(Cc2nc(-c3cc(Br)c(OCCCN(C)C)c(Br)c3)c[nH]c2=O)cc1Br` [Ma'edamine A], the IC50 in the assay on CAMA-1, in the assay on SK-BR-3 and in the assay on T47D was over 10 µM in each case.

Turning to `CNCCCOc1c(Br)cc(-c2c[nH]c(=O)c(Cc3ccc(OC)c(Br)c3)n2)cc1Br` [Ma'edamine B], the IC50 with CAMA-1 was 5.77 µM; with SK-BR-3 it was 4 µM; in the assay on T47D, 6 µM.
